Where “and” joins values, the source holds several entries; their conditions need not be identical. Equal entries are not always repeated.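 Cells were grown in 96-well plates and exposed to each compound for 48 hours at five concentrations; endpoints were interpolated linearly between bracketing concentrations, or set to the highest concentration if not reached. The concentration for 50% growth inhibition is given as GI50. The concentration for full growth arrest is given as TGI.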
Assays:
Assay in all cases: DTP human tumour cell line panel, 48 h
NCI/ADR-RES ovarian = tested on: NCI/ADR-RES ovarian
A498 renal = tested on: A498 renal
UACC-62 melanoma = tested on: UACC-62 melanoma
MOLT-4 leukemia = tested on: MOLT-4 leukemia
CAKI-1 renal = tested on: CAKI-1 renal
OVCAR-3 ovarian = tested on: OVCAR-3 ovarian
PC-3 prostate = tested on: PC-3 prostate
HOP-92 NSCLC = tested on: HOP-92 NSCLC
T-47D breast = tested on: T-47D breast
MALME-3M melanoma = tested on: MALME-3M melanoma
786-0 renal = tested on: 786-0 renal
HCT-15 colon = tested on: HCT-15 colon
OVCAR-8 ovarian = tested on: OVCAR-8 ovarian
M14 melanoma = tested on: M14 melanoma
U251 CNS = tested on: U251 CNS
MDA-MB-435 = tested on: MDA-MB-435
SK-MEL-2 melanoma = tested on: SK-MEL-2 melanoma
UACC-257 melanoma = tested on: UACC-257 melanoma
MCF7 breast = tested on: MCF7 breast
OVCAR-5 ovarian = tested on: OVCAR-5 ovarian
RXF 393 renal = tested on: RXF 393 renal
SNB-19 CNS = tested on: SNB-19 CNS
UO-31 renal = tested on: UO-31 renal
HL-60(TB) leukemia = tested on: HL-60(TB) leukemia
SW-620 colon = tested on: SW-620 colon
NCI-H522 lung = tested on: NCI-H522 lung
NCI-H460 lung = tested on: NCI-H460 lung
SK-OV-3 ovarian = tested on: SK-OV-3 ovarian
SF-539 CNS = tested on: SF-539 CNS
SK-MEL-5 melanoma = tested on: SK-MEL-5 melanoma
HCT-116 colon = tested on: HCT-116 colon
ACHN renal = tested on: ACHN renal
NCI-H23 lung = tested on: NCI-H23 lung
HOP-62 NSCLC = tested on: HOP-62 NSCLC
TK-10 renal = tested on: TK-10 renal
SF-268 CNS = tested on: SF-268 CNS
RPMI-8226 leukemia = tested on: RPMI-8226 leukemia
SF-295 CNS = tested on: SF-295 CNS
SNB-75 CNS = tested on: SNB-75 CNS
MDA-MB-231 breast = tested on: MDA-MB-231 breast
HS 578T breast = tested on: HS 578T breast
IGROV1 ovarian = tested on: IGROV1 ovarian
BT-549 breast = tested on: BT-549 breast
DU-145 prostate = tested on: DU-145 prostate
A549 NSCLC = tested on: A549 NSCLC
COLO 205 colon = tested on: COLO 205 colon
SK-MEL-28 melanoma = tested on: SK-MEL-28 melanoma
KM12 colon = tested on: KM12 colon
OVCAR-4 ovarian = tested on: OVCAR-4 ovarian
K-562 leukemia = tested on: K-562 leukemia
SR leukemia = tested on: SR leukemia
NCI-H226 lung = tested on: NCI-H226 lung
SN12C renal = tested on: SN12C renal
CCRF-CEM leukemia = tested on: CCRF-CEM leukemia
EKVX NSCLC = tested on: EKVX NSCLC
HT29 colon = tested on: HT29 colon
LOX IMVI melanoma = tested on: LOX IMVI melanoma
HCC-2998 colon = tested on: HCC-2998 colon

For `C[C@@]1(C(=O)Nc2ccc(F)nc2)CCCN1c1nc(Nc2cc(C3CC3)[nH]n2)c2cccn2n1`, the GI50 (NCI/ADR-RES ovarian) was 3.99 µM and 4.99 µM, the TGI (NCI/ADR-RES ovarian) was > 10 µM and 25.9 µM and the GI50 (A498 renal) was 0.194 µM and 0.927 µM. The TGI (A498 renal) was 0.896 µM and 3.99 µM, the GI50 (UACC-62 melanoma) was 0.388 µM and 2.1 µM and the TGI (UACC-62 melanoma) was > 2.12 µM and 18.7 µM. For the same compound, the GI50 (MOLT-4 leukemia) was 7.88 µM, the TGI (MOLT-4 leukemia) was > 3.39 µM and 58.7 µM and the GI50 (CAKI-1 renal) was 0.565 µM and 0.725 µM. The TGI (CAKI-1 renal) was > 2.29 µM and 7 µM, the GI50 (OVCAR-3 ovarian) was 8.73 µM and the TGI (OVCAR-3 ovarian) was > 3.4 µM and 22.3 µM. The GI50 (PC-3 prostate) was 0.989 µM and 1.41 µM, the TGI (PC-3 prostate) was > 7.62 µM and 23.5 µM and the GI50 (HOP-92 NSCLC) was 0.0119 µM and < 0.01 µM. For the same compound, the TGI (HOP-92 NSCLC) was 0.672 µM and 0.2 µM, the GI50 (T-47D breast) was 1.2 µM and 7.47 µM and the TGI (T-47D breast) was > 3.53 µM and 27.2 µM. For the same compound, the GI50 (MALME-3M melanoma) was 11.7 µM, the TGI (MALME-3M melanoma) was > 4.48 µM and 29.4 µM and the GI50 (786-0 renal) was 0.855 µM and 2.78 µM. The TGI (786-0 renal) was > 4.29 µM and 17.7 µM, the GI50 (HCT-15 colon) was 0.826 µM and 2.12 µM and the TGI (HCT-15 colon) was > 4.91 µM and 36.1 µM. The GI50 (OVCAR-8 ovarian) was 1.77 µM and 5.99 µM, the TGI (OVCAR-8 ovarian) was > 10 µM and 21.1 µM and the GI50 (M14 melanoma) was 0.624 µM and 2.5 µM. The TGI (M14 melanoma) was > 2.85 µM and 20.5 µM, the GI50 (U251 CNS) was 1.74 µM and 4.92 µM and the TGI (U251 CNS) was > 7.39 µM and 20.6 µM. The TGI (MDA-MB-435) was > 5.42 µM and 23.6 µM, the GI50 (SK-MEL-2 melanoma) was 0.631 µM and 2.64 µM and the TGI (SK-MEL-2 melanoma) was > 2.29 µM and 18.8 µM. For the same compound, the GI50 (UACC-257 melanoma) was 0.211 µM and 0.12 µM, the TGI (UACC-257 melanoma) was > 4.46 µM and 16.5 µM and the GI50 (MCF7 breast) was 0.0445 µM and 0.0305 µM. For the same compound, the TGI (MCF7 breast) was > 2.69 µM and 15.2 µM, the GI50 (OVCAR-5 ovarian) was 0.225 µM and 0.455 µM and the TGI (OVCAR-5 ovarian) was > 2.77 µM and 15.5 µM. For the same compound, the GI50 (RXF 393 renal) was 0.396 µM and 1.44 µM, the TGI (RXF 393 renal) was 1.26 µM and 7.11 µM and the GI50 (SNB-19 CNS) was 12.3 µM. The TGI (SNB-19 CNS) was > 10 µM and 37.3 µM, the GI50 (UO-31 renal) was 0.458 µM and 2.78 µM and the TGI (UO-31 renal) was > 4.38 µM and 16 µM. For the same compound, the GI50 (HL-60(TB) leukemia) was 0.00905 µM, the TGI (HL-60(TB) leukemia) was > 2.06 µM and the GI50 (SW-620 colon) was 0.214 µM and 0.342 µM. The TGI (SW-620 colon) was > 10 µM and 23.4 µM, the GI50 (NCI-H522 lung) was 1.19 µM and 4 µM and the TGI (NCI-H522 lung) was > 2.54 µM and 20.9 µM. For the same compound, the GI50 (NCI-H460 lung) was 0.184 µM and 0.288 µM, the TGI (NCI-H460 lung) was > 3.07 µM and 14.3 µM and the GI50 (SK-OV-3 ovarian) was 0.95 µM and 6.12 µM. The TGI (SK-OV-3 ovarian) was > 4.91 µM and 22.2 µM, the GI50 (SF-539 CNS) was 0.82 µM and 2.47 µM and the TGI (SF-539 CNS) was > 2.45 µM and 16.3 µM. The GI50 (SK-MEL-5 melanoma) was 3.82 µM, the TGI (SK-MEL-5 melanoma) was > 2.15 µM and 17.5 µM and the GI50 (HCT-116 colon) was 0.314 µM and 0.575 µM. The TGI (HCT-116 colon) was > 2.33 µM and 15.9 µM, the GI50 (ACHN renal) was 0.849 µM and 3.36 µM and the TGI (ACHN renal) was > 3.47 µM and 26.1 µM. For the same compound, the GI50 (NCI-H23 lung) was 0.391 µM and 0.794 µM, the TGI (NCI-H23 lung) was > 4.93 µM and 19.8 µM and the GI50 (HOP-62 NSCLC) was 0.404 µM and 1.71 µM. The TGI (HOP-62 NSCLC) was > 5.17 µM and 15.4 µM, the GI50 (TK-10 renal) was 1.57 µM and 0.593 µM and the TGI (TK-10 renal) was > 10 µM and 8.38 µM. The GI50 (SF-268 CNS) was 0.631 µM and 2.56 µM, the TGI (SF-268 CNS) was > 2.57 µM and 15.6 µM and the GI50 (RPMI-8226 leukemia) was 7.86 µM. The TGI (RPMI-8226 leukemia) was > 2.89 µM and 42.1 µM, the GI50 (SF-295 CNS) was 0.472 µM and 0.841 µM and the TGI (SF-295 CNS) was 3.2 µM and 6.78 µM. For the same compound, the GI50 (SNB-75 CNS) was 0.138 µM and 1.24 µM, the GI50 (MDA-MB-231 breast) was 0.786 µM and 3.11 µM and the TGI (MDA-MB-231 breast) was > 10 µM and 15.1 µM. The GI50 (HS 578T breast) was 0.631 µM and 2.56 µM, the TGI (HS 578T breast) was 3.19 µM and 8.61 µM and the GI50 (IGROV1 ovarian) was 0.514 µM and 1.71 µM. The TGI (IGROV1 ovarian) was > 3.87 µM and 16.5 µM, the GI50 (BT-549 breast) was 0.832 µM and 3.06 µM and the TGI (BT-549 breast) was > 2.46 µM and 14.2 µM. For the same compound, the GI50 (DU-145 prostate) was 1.03 µM and 2.57 µM, the TGI (DU-145 prostate) was > 4 µM and 16.4 µM and the GI50 (A549 NSCLC) was 0.259 µM and 0.384 µM. For the same compound, the TGI (A549 NSCLC) was > 10 µM and 22.9 µM, the GI50 (COLO 205 colon) was 0.00929 µM and 0.0501 µM and the TGI (COLO 205 colon) was 0.236 µM and 0.321 µM. For the same compound, the GI50 (SK-MEL-28 melanoma) was 11.8 µM, the TGI (SK-MEL-28 melanoma) was > 3.92 µM and 25.7 µM and the GI50 (KM12 colon) was 0.0533 µM and 0.125 µM. The TGI (KM12 colon) was 0.467 µM and 0.817 µM, the GI50 (OVCAR-4 ovarian) was 1.34 µM and 3.2 µM and the TGI (OVCAR-4 ovarian) was > 3.38 µM and 26.7 µM. For the same compound, the TGI (K-562 leukemia) was > 10 µM and 56.6 µM, the TGI (SR leukemia) was > 2.53 µM and 15.7 µM and the GI50 (NCI-H226 lung) was 0.248 µM and 0.651 µM. The TGI (NCI-H226 lung) was 1.9 µM and 7.91 µM, the GI50 (SN12C renal) was 0.877 µM and 3.55 µM and the TGI (SN12C renal) was > 6.62 µM and 18.3 µM. For the same compound, the GI50 (CCRF-CEM leukemia) was 0.378 µM and 0.574 µM, the TGI (CCRF-CEM leukemia) was > 100 µM and the GI50 (EKVX NSCLC) was 0.417 µM and 1.21 µM. For the same compound, the TGI (EKVX NSCLC) was > 4.23 µM and 17.1 µM, the GI50 (HT29 colon) was 0.00443 µM and 0.0103 µM and the TGI (HT29 colon) was > 10 µM and 1.84 µM. The GI50 (LOX IMVI melanoma) was 0.346 µM and 1.1 µM, the TGI (LOX IMVI melanoma) was > 2.04 µM and 12.2 µM and the GI50 (HCC-2998 colon) was 1.06 µM and 6.27 µM. For the same compound, the TGI (HCC-2998 colon) was > 4.7 µM and 22.7 µM.
